Measurements reported in patent US20090215884A1, “METHOD FOR WOUND HEALING” (priority 2005, published 2009).

Experiments:
[1] = system: epidermal keratinocytes; assay: MTT cell viability and proliferation, epidermal keratinocytes; assay type: cell-based, human; conditions: 100 μg/ml PEP005
Experimental: Human, adult, epidermal keratinocytes, were purchased cryopreserved from Cascade Biologics Inc., Nottinghamshire, U.K. These cells (>500,000 viable cells/vial) were tested to be >70% viable, with the capacity to proliferate for at least 16 population doublings. The epidermal keratinocytes were cultured in serum-free, EpiLife® Medium (Cascade Biologics Inc.), supplemented with antibiotics (100 U/ml penicillin G sodium, […] streptomycin sulphate and 0.25 μg/ml amphotericin B) and EpiLife® Defined Growth Supplement (EDGS, consisting of purified bovine serum albumin, purified bovine transferring, hydrocortisone, recombinant human insulin-like growth factor type-1, prostaglandin E2 and recombinant human epidermal growth factor, Cascade Biologics Inc.). Epidermal keratinocytes cultures were maintained at 37° C., in a 5% CO2/95% air atmosphere, with the culture medium being changed every 2-3 days. Epidermal keratinocytes were used between 4-6 passages, for all experiments.
Prior to use, the PEP005/DMSO stock solution was removed from 4° C. storage and warmed to room temperature. […]

[2] = system: Me10538 cells; assay: Cytokine production by PEP005-treated human melanoma cells; assay type: cell-based; conditions: 6 h, supernatant
Experimental: (§1) Cytokine production by PEP005-treated human cells Confluent cultures of Me10538 cells, keratinocytes, fibroblasts and neutrophils were incubated for 6 h in the absence or presence of PEP005 (1-100 ng/ml). The supernatants were harvested and analyzed for the presence of the following cytokines; TNF-α, IL-6 and IL-8 using a multiplex detection kit (Biosource International, Nivelles, Belgium). Units of detected proteins are pg/ml.

[3] = Storage stability of PEP005 preparations; assay type: physicochemical; conditions: stored at 4° C.
Experimental: PEP005 was supplied by Peplin Limited, Brisbane, Australia, in 20 mg batches and stored at 4° C. When required, the PEP005 was solubilized in dimethyl sulphoxide (DMSO, >99.9%, Sigma Chemical Co., Dorset, U.K.), at a concentration of 10 mg/ml.
PEP005 was supplied by Peplin Limited, Brisbane, Australia as 0.01% (100 μg/ml), 0.028% (280 μg/ml) and 0.05% (500 μg/ml) preparations in a DMSO/isopropanol-based gel. PEP005-free, DMSO/isopropanol-based carrier gel was also supplied to serve as a vehicle control.

[4] = system: neutrophils; assay: Cytokine production by PEP005-treated human neutrophils; assay type: cell-based; conditions: 6 h, supernatant
Experimental: as §1

SMILES: C/C=C(/C)C(=O)O[C@H]1C(C)=C[C@]23C(=O)[C@@H](C=C(CO)[C@@H](O)[C@]12O)[C@H]1[C@@H](C[C@H]3C)C1(C)C [PEP005, ingenol-3-angelate]
- keratinocyte cell viability/proliferation (MTT) [1]: cytotoxic effect
- IL-8 ([2]; PEP005 1 ng/ml): <2 pg/mL
- IL-8 ([2]; PEP005 5 ng/ml): 210 ± 6 pg/mL
- IL-8 ([2]; PEP005 10 ng/ml): 737 ± 26 pg/mL
- IL-8 ([2]; PEP005 100 ng/ml): 390 ± 18 pg/mL
- stability of PEP005 gels ([3]; 0.01%, 0.028% and 0.05% preparations in DMSO/isopropanol-based gel): stable for several months
- stability of PEP005/DMSO stock solution ([3]; 10 mg/ml in DMSO): stable for several months
- IL-8 ([4]; PEP005 1 ng/ml): 7089 ± 1293 pg/mL
- IL-8 ([4]; PEP005 10 ng/ml): 2241 ± 684 pg/mL
- IL-8 ([4]; PEP005 100 ng/ml): 617 ± 52 pg/mL
